From publication PMC11480993, “Combining Data-Driven and Structure-Based Approaches in Designing Dual PARP1-BRD4 Inhibitors for Breast Cancer Treatment” (Journal of Chemical Information and Modeling, 2024)
Read-outs that look alike come from different tables or passages of the source.

What was measured:
PARP1 [1] = test: Western blot, PARP1 expression in MCF-7 cells; assay type: cell-based; conditions: MCF-7, 48 h treatment
Method: (§1) Following a 48 h treatment, cellular proteins were extracted using RIPA cell lysis buffer containing protease and phosphatase inhibitor cocktail. The protein concentration was assessed by using a BCA assay. Subsequently, equal amounts of these proteins were loaded onto an SDS-PAGE gel and transferred onto a PVDF membrane. The protein-loaded membrane was then blocked using a commercial blocking solution (Beyotime, China) and sequentially incubated with primary and secondary antibodies. Protein bands were visualized using an ECL chemiluminescence kit and quantified using ImageJ software.

MCF-7 cells [2] = test: Cell apoptosis detection (Annexin V-FITC/PI flow cytometry); assay type: cell-based; conditions: 2 μM, MCF-7, dose-dependent
Method: Cell apoptosis was assessed using the Annexin V-FITC/PI apoptosis detection kit. Following a 24 h treatment, cells were harvested and rinsed with PBS. Subsequently, the gathered cells were stained in accordance with the manufacturer’s guidelines and analyzed using BD FACSCelesta flow cytometry (New York, USA). FlowJo_V10 software was employed for data analysis.

PARP1 [3] = target: PARP1 (Homo sapiens, UniProt P09874); test: In vitro PARP1 enzymatic activity (ELISA, biotinylated NAD+, luminescence); assay type: biochemical
Sequence of PARP1 (Homo sapiens, UniProt P09874) (P09874 whole entry): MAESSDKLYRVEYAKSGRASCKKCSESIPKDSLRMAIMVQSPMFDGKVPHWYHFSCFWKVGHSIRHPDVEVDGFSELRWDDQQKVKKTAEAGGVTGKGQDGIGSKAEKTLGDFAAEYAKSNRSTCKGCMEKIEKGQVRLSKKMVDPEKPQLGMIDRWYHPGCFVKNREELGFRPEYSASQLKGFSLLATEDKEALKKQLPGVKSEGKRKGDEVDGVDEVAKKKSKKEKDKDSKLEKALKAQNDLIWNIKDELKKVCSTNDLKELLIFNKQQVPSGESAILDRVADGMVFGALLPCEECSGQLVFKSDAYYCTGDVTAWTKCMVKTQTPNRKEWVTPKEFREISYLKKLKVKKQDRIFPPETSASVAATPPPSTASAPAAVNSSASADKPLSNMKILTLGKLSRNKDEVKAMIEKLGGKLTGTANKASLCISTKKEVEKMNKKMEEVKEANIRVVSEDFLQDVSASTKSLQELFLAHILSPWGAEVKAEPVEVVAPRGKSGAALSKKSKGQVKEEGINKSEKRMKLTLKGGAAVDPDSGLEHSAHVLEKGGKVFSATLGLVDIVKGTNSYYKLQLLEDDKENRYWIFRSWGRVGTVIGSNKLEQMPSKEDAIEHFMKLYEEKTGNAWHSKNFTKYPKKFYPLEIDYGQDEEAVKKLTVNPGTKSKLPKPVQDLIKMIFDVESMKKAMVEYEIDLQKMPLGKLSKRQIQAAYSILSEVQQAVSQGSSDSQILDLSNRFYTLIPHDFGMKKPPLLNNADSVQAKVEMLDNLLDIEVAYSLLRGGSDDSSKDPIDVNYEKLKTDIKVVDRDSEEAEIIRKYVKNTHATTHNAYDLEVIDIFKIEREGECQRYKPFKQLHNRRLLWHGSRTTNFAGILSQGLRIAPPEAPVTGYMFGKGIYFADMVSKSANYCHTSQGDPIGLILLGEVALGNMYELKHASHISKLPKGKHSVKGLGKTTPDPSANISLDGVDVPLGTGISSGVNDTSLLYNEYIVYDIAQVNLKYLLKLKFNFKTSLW
Method: The inhibition of the tested compounds on PARP1 enzymatic activity was determined by ELISA in 96-well plates. Each well was precoated with histone (20 μg/mL) diluted in 100 μL of PBS buffer (10 mM NaH2PO4, 100 mM Na2HPO4, 150 mM NaCl, pH 7.4) by incubation at 4 °C overnight. […] The reaction was initiated by the addition of 20 μL of PARP1 (50 ng/well) at 30 °C for 1 h. Then the reaction solution was added to 50 μL of streptavidin conjugated HRP. The assay was performed at 30 °C for an additional 30 min. Finally, 100 μL of solution (H2O2 and luminol in citrate buffer 0.1 M, pH 5.4) was added and luminescent signal was measured using a multiwell spectrophotometer (Molecular Devices SpectraMax M5 microplate reader).

cleaved Caspase 3 = test: Western blot, cleaved Caspase 3 in MCF-7 cells; assay type: cell-based; conditions: MCF-7, 48 h, dose-dependent
Method: as §1

MCF-7 cells [4] = test: Alkaline comet assay; assay type: cell-based; conditions: 4 and 8 μM, 48 h, MCF-7, compared to control
Method: The Alkaline comet assay was executed in accordance with the manufacturer’s instructions. Following a 48 h treatment period, cells were harvested and combined with low melting point agarose. The resulting mixture was layered onto slides coated with agarose as a normal melting point agarose. Subsequently, the cells on the slides were lysed overnight at 4 °C and then unwound in an alkaline unwinding solution for 30 min at room temperature. Following electrophoresis, the samples were neutralized and stained with propidium iodide. The outcomes were visualized using a confocal microscope (Nikon A1 HD25), with three random images captured from each slide.

MCF-7 cells [5] = test: Cell cycle detection (PI flow cytometry); assay type: cell-based; conditions: for cell cycle G0/G1 / cell cycle G2/M / cell cycle S: 24 h
Method: Cell cycle analysis was performed using a PI cell cycle detection kit. Following a 24 h treatment, cells were gathered, fixed with 75% ethanol, and stained with PI according to the manufacturer’s protocol. Subsequently, cell cycle analysis was detected using BD FACSCelesta flow cytometry (New York, USA). The obtained data were then subjected to analysis using FlowJo_V10.

BRD4 BD2 = BRD4 BD2 (Homo sapiens, UniProt O60885); test: BRD TR-FRET assay, BRD4 BD2; assay type: binding
Method: (§2) The assay was performed by TR-FRET technology using a BRD and its corresponding ligand (BET). The TR-FRET signal from the assay is correlated with the amount of ligand binding to the bromodomain. All of the binding reactions were conducted at room temperature. The 20 μL reaction mixture in Assay Buffer contains either bromodomains, BET Ligand, and the indicated amount of inhibitor. For the negative control (blank), 5 μL of the assay buffer was added instead of the BET ligand. The reaction mixture was incubated for 120 min. After the incubation with the ligand, the TR-FRET signal was measured using a Tecan Infinite M1000 plate reader.

γH2AX = test: Western blot, γH2AX in MCF-7 cells; assay type: cell-based; conditions: MCF-7, 48 h
Method: as §1

MDA-MB-436 cells = test: Cell viability (MTT), MDA-MB-436; assay type: cell-based; conditions: Homo sapiens, MDA-MB-436, 96 h; 4-day treatment, BRCA mutant
Method: (§3) MDA-MB-231, MDA-MB-436, and MCF-7 cells were seeded into 96-well plates with the number of 5 × 10^3 in each cell and allowed to incubate for 24 h. Subsequently, various concentrations of the test compounds (ranging from 100 to 0.78 μM with twice gradient dilution) were introduced. After 4 days of incubation, MTT solution was applied, and the cells were incubated for an additional 4 h. Following the removal of the supernatant, the violet crystals were dissolved in 200 μL of DMSO, and the absorbance was measured at 570 nm.

CDK6 = test: Western blot, CDK6 in MCF-7 cells; assay type: cell-based; conditions: MCF-7, 48 h
Method: as §1

BRD4 [6] = target: BRD4 (Homo sapiens, UniProt O60885); test: BRD TR-FRET assay, BRD4; assay type: binding
Method: as §2

[7] = test system: L02 (normal human liver cell); test: Cytotoxicity against non-tumor cells, L02; assay type: cell-based; conditions: 96 h, 4-day treatment
Source text: To further establish HF4’s advantage, we employed a web-based in silico cytotoxicity prediction tool (https://www.way2drug.com/clc-pred/index.php), encompassing the prediction against 391 tumor and 47 normal human cell lines,[47] to predict the cytotoxicity of HF4 against nontumor cell lines. […] The absence of nontumor cell lines among the top-ranked ones indicates a limited impact on normal cell line. When threshold of ≥0.15 was applied, among 50 predictions, only a single normal cell line (HEK293) was present in the list, with a predicted probability value below 0.2. We further reinforced the safety profile of HF4 by conducting experimental safety assessments on two normal cell lines. […] In summary, we conducted both computational safety predictions and experimental evaluations on normal cell lines to strengthen the assurance of HF4’s safety profile.
Cytotoxicity of HF4 against non-tumor cells
Figure S6. Cytotoxicity of HF4 against non-tumor cells during a 4-day treatment.
(1 picture or pasted object on this page, not shown here)

Rad51 = test: Western blot, Rad51 in MCF-7 cells; assay type: cell-based; conditions: MCF-7, 48 h
Method: as §1

BRD4 [8] = test: Western blot, BRD4 expression in MCF-7 cells; assay type: cell-based; conditions: MCF-7, 48 h treatment
Method: as §1

MCF-7 cells [9] = test: Cell viability (MTT), MCF-7; assay type: cell-based; conditions: Homo sapiens, MCF7, 96 h; 4-day treatment, wild-type BRCA
Method: as §3

IC50 (PARP1 [3]): 2020 ± 683 nM | decrease in effectiveness against PARP1, tricyclic to bicyclic scaffold (PARP1 [3]; HF4 vs HF1): approximately 20 fold | ligand efficiency index against PARP1 (PARP1 [3]; pIC50 divided by HAC, HAC = 25): 0.23 | IC50 (PARP1 [3]; value of the text): ~2000 nM | IC50 (BRD4 BD2): 801 ± 238 nM | IC50 (MDA-MB-436 cells): 4900 nM | IC50 (BRD4 [6]): 1210 ± 324 nM | ligand efficiency index against BRD4 (BRD4 [6]; pIC50 divided by HAC, HAC = 25): 0.24 | IC50 (BRD4 [6]; value of the text): 1200 nM | reduction in capacity to inhibit BRD4 relative to PFI-1 (BRD4 [6]; vs PFI-1): around 5 fold | IC50 (MCF-7 cells [9]): 2100 nM
SMILES: CCc1cc2cc(NS(=O)(=O)c3ccc(F)c(C)c3)ccc2[nH]c1=O [HF4, N-(3-ethyl-2-oxo-1,2-dihydroquinolin-6-yl)-4-fluoro-3-methylbenzenesulfonamide]
PARP1 expression (PARP1 [1]): limited effect | apoptotic cells (MCF-7 cells [2]): substantial increase in apoptotic cells | cleaved Caspase 3 expression (cleaved Caspase 3): upregulating | DNA damage (comet tail length, percentage of damaged DNA) (MCF-7 cells [4]): increase in both tail length and the percentage of damaged DNA | effect on cell cycle (MCF-7 cells [5]): halted the cell cycle at the G0/G1 phase | cell cycle G0/G1 (MCF-7 cells [5]; 2 μM): 83.0% | cell cycle G2/M (MCF-7 cells [5]; 2 μM): 0.51% | cell cycle S (MCF-7 cells [5]; 2 μM): 17.0% | cell cycle G0/G1 (MCF-7 cells [5]; 4 μM): 89.0% | cell cycle G2/M (MCF-7 cells [5]; 4 μM): 2.96% | cell cycle S (MCF-7 cells [5]; 4 μM): 9.42% | cell cycle G0/G1 (MCF-7 cells [5]; 8 μM): 92.0% | cell cycle G2/M (MCF-7 cells [5]; 8 μM): 4.55% | cell cycle S (MCF-7 cells [5]; 8 μM): 7.63% | levels of γH2AX (γH2AX): dose-dependent upregulation | CDK6 expression (CDK6): dose-dependently lowered | IC50 [7]: 26300 ± 6200 nM | expression of Rad51 (Rad51): significantly reduced | BRD4 expression (BRD4 [8]): an increase but to a much lesser extent than JQ1
